Experimental data from the NIST ThermoML archive (doi:10.1007/s10765-005-5585-3).
Numbers after ± are expanded uncertainties.

Conditions: 101.33 kPa, Liquid; for mass density: UV imaging technique; for viscosity: oscillations around equilibria

[Ir] [iridium]
Conditions | mass density [kg/m3] | viscosity [mPa·s]
2300 K | 19856 ± 400 | –
2350 K | 19814 ± 400 | –
2373 K | – | 8.47 ± 0.85
2398 K | – | 8.34 ± 0.83
2400 K | 19771 ± 400 | –
2423 K | – | 8.21 ± 0.82
2448 K | – | 8.08 ± 0.81
2450 K | 19729 ± 400 | –
2473 K | – | 7.97 ± 0.8
2498 K | – | 7.85 ± 0.79
2500 K | 19686 ± 390 | –
2523 K | – | 7.74 ± 0.77
2548 K | – | 7.63 ± 0.76
2550 K | 19644 ± 390 | –
2573 K | – | 7.53 ± 0.75
2598 K | – | 7.42 ± 0.74
2600 K | 19601 ± 390 | –
2623 K | – | 7.33 ± 0.73
2648 K | – | 7.23 ± 0.72
2650 K | 19559 ± 390 | –
2673 K | – | 7.14 ± 0.71
2698 K | – | 7.05 ± 0.71
2700 K | 19516 ± 390 | –
2723 K | – | 6.97 ± 0.7
2748 K | – | 6.88 ± 0.69
2750 K | 19474 ± 390 | –
2773 K | – | 6.8 ± 0.68
2800 K | 19431 ± 390 | –
2850 K | 19389 ± 390 | –
2900 K | 19346 ± 390 | –
2950 K | 19304 ± 390 | –
3000 K | 19261 ± 380 | –
